Laboratory results: ChEMBL document CHEMBL2074372, “CHO/hPEPT1 cells overexpressing the human peptide transporter (hPEPT1) as an alternative in vitro model for peptidomimetic drugs” (J Pharm Sci, 1999)

Legend:
[1] = molecular target: T1, Solute carrier family 15 member 1 (Homo sapiens, UniProt P46059); test: TP_TRANSPORTER: inhibition of Gly-Sar uptake (Gly-Sar: 20 uM) in PEPT1-expressing CHO cells; assay type: functional, cell-based
T1 sequence (P46059 whole entry): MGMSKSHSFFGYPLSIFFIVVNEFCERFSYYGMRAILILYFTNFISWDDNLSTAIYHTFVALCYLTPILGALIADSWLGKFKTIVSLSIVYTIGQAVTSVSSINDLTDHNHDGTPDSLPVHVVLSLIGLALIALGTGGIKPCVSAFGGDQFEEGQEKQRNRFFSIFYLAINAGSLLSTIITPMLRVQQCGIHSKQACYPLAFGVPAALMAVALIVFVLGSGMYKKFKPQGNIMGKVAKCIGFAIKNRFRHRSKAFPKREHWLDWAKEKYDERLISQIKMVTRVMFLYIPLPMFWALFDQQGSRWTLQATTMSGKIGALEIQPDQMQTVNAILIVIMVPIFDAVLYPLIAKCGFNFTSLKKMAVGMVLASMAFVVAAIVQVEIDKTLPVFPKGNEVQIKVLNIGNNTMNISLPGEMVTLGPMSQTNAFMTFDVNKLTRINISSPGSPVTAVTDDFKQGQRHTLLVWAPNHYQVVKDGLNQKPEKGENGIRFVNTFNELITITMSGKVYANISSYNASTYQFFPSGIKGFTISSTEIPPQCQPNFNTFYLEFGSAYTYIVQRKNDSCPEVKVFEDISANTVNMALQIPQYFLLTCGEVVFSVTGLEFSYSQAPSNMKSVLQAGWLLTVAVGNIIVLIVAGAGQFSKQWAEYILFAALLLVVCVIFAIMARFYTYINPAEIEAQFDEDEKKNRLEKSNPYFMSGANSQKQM

[2] = molecular target: T2, Solute carrier family 15 member 1 (Homo sapiens) (UniProt P46059); test: TP_TRANSPORTER: uptake in PEPT1-expressing CHO cells; assay type: functional, cell-based
T2 sequence (whole entry): T1 sequence (P46059 whole entry)

An IC50 [1] of 141 mM was found for `N[C@@H](Cc1ccc(O)c(O)c1)C(=O)O` [LEVODOPA] in this work.
An IC50 [1] of 152 mM was found for `C[C@](N)(Cc1ccc(O)c(O)c1)C(=O)O` [METHYLDOPA] in this work.
For `CC1=C(C(=O)O)N2C(=O)[C@@H](NC(=O)[C@H](N)C3=CCC=CC3)[C@H]2SC1` [CEPHRADINE], the Activity [2] was “substrate [+]” and the IC50 [1] was 15.3 mM.
An IC50 [1] of 4.5 mM was found for `CCOC(=O)[C@H](CCc1ccccc1)N[C@@H](C)C(=O)N1CCC[C@H]1C(=O)O` in this work.
With `N[C@@H](C(=O)N[C@@H]1C(=O)N2C(C(=O)O)=C(Cl)CS[C@H]12)c1ccccc1` [CEFACLOR ANHYDROUS] the Activity [2] was “substrate [+]” and the IC50 [1] was 8.2 mM.
